Source: patent US8889676B2, “3-ureidoisoquinolin-8-yl derivatives” (Actelion Pharmaceuticals Ltd., priority 2011, dated 2014)
≈ marks a conversion by molar mass, not a printed value.

system: S. pneumoniae ATCC 49619; assay: Minimal inhibitory concentration (MIC) by broth microdilution (CLSI M7-A7); format: cell-based, Streptococcus pneumoniae; settings: Streptococcus pneumoniae, ATCC49619; cation-adjusted Mueller Hinton Broth supplemented with 3% (v/v) lysed horse blood; microdilution method
Procedure: Minimal inhibitory concentrations (MICs; mg/l) were determined in cation-adjusted MuellerHinton Broth (supplemented with 3% (v/v) lysed horse blood for testing Streptococcus pneumoniae) by a microdilution method following the description given in “Methods for Dilution Antimicrobial Susceptibility Tests for Bacteria that Grow Aerobically”, Approved standard, 7th ed., a Clinical and Laboratory Standards Institute (CLSI) Document M7-A7, Wayne, Pa., USA, 2006.

In order of falling MIC:
1. CCNC(=O)Nc1cc2c(-c3ccncc3)ccc(CNC(=O)OCCN3CCCC3)c2cn1 [Example 80, [3-(3-ethyl-ureido)-5-pyridin-4-yl-isoquinolin-8-ylmethyl]-carbamic acid 2-pyrrolidin-1-yl-ethyl ester]  8 µg/mL (≈ 17.3 µM)
2. CCNC(=O)Nc1cc2c(Cl)ccc(CNC(=O)OCCCN3CCOCC3)c2cn1 [Example 148, [5-chloro-3-(3-ethyl-ureido)-isoquinolin-8-ylmethyl]-carbamic acid 3-morpholin-4-yl-propyl ester]  4 µg/mL (≈ 8.89 µM)
3. CCNC(=O)Nc1cc2cccc(CNC(=O)c3ncc[nH]3)c2cn1 [Example 16, 1H-imidazole-2-carboxylic acid [3-(3-ethyl-ureido)-isoquinolin-8-ylmethyl]-amide]  4 µg/mL (≈ 11.8 µM)
4. CCNC(=O)Nc1cc2c(-c3ccnc(C(F)(F)F)c3)ccc(CNC(=O)OC)c2cn1 [Example 165, [3-(3-ethyl-ureido)-5-(2-trifluoromethyl-pyridin-4-yl)-isoquinolin-8-ylmethyl]-carbamic acid methyl ester]  4 µg/mL (≈ 8.94 µM)
5. CCNC(=O)NCc1cccc2cc(NC(=O)NCC)ncc12 [Example 43, 1-ethyl-3-{8-[(3-ethyl-ureido)-methyl]isoquinolin-3-yl}-urea]  4 µg/mL (≈ 12.7 µM)
6. CCNC(=O)Nc1cc2cccc(CNC(C)=O)c2cn1 [Example 3, N-[3-(3-ethyl-ureido)-isoquinolin-8-ylmethyl]-acetamide]  4 µg/mL (≈ 14 µM)
7. CCNC(=O)Nc1cc2c(-c3ccnc(CCC(=O)N(C)C)c3)ccc(CNC(=O)OC)c2cn1 [Example 196, [5-[2-(2-dimethylcarbamoyl-ethyl)-pyridin-4-yl]-3-(3-ethyl-ureido)-isoquinolin-8-ylmethyl]-carbamic acid methyl ester]  4 µg/mL (≈ 8.36 µM)
8. CCNC(=O)Nc1cc2c(-c3cc(C)ncc3F)ccc(CNC(=O)OC)c2cn1.Cl [Example 188, [3-(3-ethyl-ureido)-5-(5-fluoro-2-methyl-pyridin-4-yl)-isoquinolin-8-ylmethyl]-carbamic acid methyl ester hydrochloride]  2 µg/mL
9. CCNC(=O)Nc1cc2c(-c3ccnc(CC(=O)OC(C)(C)C)c3)ccc(CNC(=O)OCCOC)c2cn1 [Example 178, (4-{3-(3-ethyl-ureido)-8-[(2-methoxy-ethoxycarbonylamino)-methyl]-isoquinolin-5-yl}-pyridin-2-yl)-acetic acid tert-butyl ester]  2 µg/mL (≈ 3.72 µM)
10. CCNC(=O)Nc1cc2cccc(CNC(=O)OCc3ccncc3)c2cn1.Cl [Example 25, [3-(3-ethyl-ureido)-isoquinolin-8-ylmethyl]-carbamic acid pyridin-4-ylmethyl ester hydrochloride]  2 µg/mL
11. CCNC(=O)Nc1cc2c(-c3cc(F)ncc3C)ccc(CNC(=O)OC)c2cn1.Cl [Example 186, [3-(3-ethyl-ureido)-5-(2-fluoro-5-methyl-pyridin-4-yl)-isoquinolin-8-ylmethyl]-carbamic acid methyl ester hydrochloride]  2 µg/mL
12. CCNC(=O)Nc1cc2c(Cl)ccc(CNC(=O)OC(C)(C)C)c2cn1 [Example 113, [5-chloro-3-(3-ethyl-ureido)-isoquinolin-8-ylmethyl]-carbamic acid tert-butyl ester]  1 µg/mL (≈ 2.64 µM)
13. C#CC(=O)NCc1ccc(-c2ccnnc2)c2cc(NC(=O)NCC)ncc12 [Example 129, propynoic acid [3-(3-ethyl-ureido)-5-pyridazin-4-yl-isoquinolin-8-ylmethyl]-amide]  0.5 µg/mL (≈ 1.34 µM)
14. CCNC(=O)Nc1cc2c(-c3ccncc3)ccc(CNC(=O)OC)c2cn1 [Example 79, [3-(3-ethyl-ureido)-5-pyridin-4-yl-isoquinolin-8-ylmethyl]-carbamic acid methyl ester]  0.25 µg/mL (≈ 0.659 µM)

same assay, conditions: cation-adjusted Mueller Hinton Broth supplemented with 3% (v/v) lysed horse blood; microdilution method

In the case of `CCNC(=O)Nc1cc2c(-c3ccnc(CN4CCOCC4)c3)ccc(CNC(=O)OCCOC)c2cn1` [Example 123, {3-(3-ethyl-ureido)-5-[(2-morpholin-4-ylmethyl)-pyridin-4-yl]-isoquinolin-8-ylmethyl}-carbamic acid 2-methoxy-ethyl ester], the “MIC for S. pneumoniae ATCC 49619” value is reported as 8 µg/mL.
